{
  "source": "paper PMC11726150",
  "about": "“Pre‐ADMET studies of 5‐(3′,4′‐dihydroxyphenyl)‐γ‐valerolactone, the bioactive intestinal metabolite of proanthocyanidins” (Archiv Der Pharmazie, 2024)",
  "key": {"[1]": {"test_system": "Caco2 monolayers", "experiment": "In vitro transport study across 21‐day Caco2 monolayers", "type": "in vitro ADME, human", "description": "Caco2 cells between passage numbers 42–50 and MDCK cells between passage numbers 21–26 were used for transport studies; the assay was conducted as reported by Volpe^[ [33] ^] with slight modifications. Transport experiments were performed in 12‐well Transwell plates. Caco2 cells were seeded at a density of 60,000 cells/cm^2 and grown for 21 days, with change of media every 3 days, while MDCK cells were seeded at a density of 70,000 cells/cm^2 and grown for 5 days, changing the medium daily. The physiological and morphological formation of a confluent monolayer was evaluated by measuring the TEER value: Caco2 monolayers became confluent 1 week after seeding with TEER values greater than 450 Ω/cm^2, while MDCK monolayers became confluent 24 h after seeding with TEER values greater than 90 Ω/cm^2. Phenol red and serum‐free DMEM/F12 medium was used as transport buffer. For bidirectional transport, VL (50 μM) and control compound (propranolol and paclitaxel, 10 μM) were added to the apical side to determine apical to basolateral transport (A–B; absorptive direction) and to the basal side to determine basolateral to apical transport (B–A; secretory direction). The volume of the apical and basolateral chambers was 0.5 and 1.5 mL, respectively. Aliquots of 120 μL were taken from the basolateral (for A–B transport) or the apical (for B–A transport) chamber at 30, 60, 90, and 120 min. An equal volume was replaced with a transport buffer at every time point. At the beginning and at the end of the experiment, an aliquot was also taken from the apical or basolateral chamber for analysis of the drug. To determine the integrity of monolayers, TEER values were measured before and after the experiment. In addition, at the end of the experiment cells were collected and lysed to evaluate the compound intake. Briefly, cells were washed twice with cold PBS and 200 µL of cold MeOH was added to detach and lysate the cells; subsequently, cells were collected into lo‐bind Eppendorf and sonicated in ice for 10 min, then centrifuged for 15 min at 4°C at 14,000 rpm (Eppendorf Centrifuge 5430 R). The supernatant was collected and used for further analysis.\nThe apparent permeability P app (cm/s) of compounds was calculated from the following equation (Equation 1), while P app (cm/s) of the metabolites was calculated from the equation (Equation 2): (1) Papp=dQ/dt×1/C×1/A.\nEquation (1) for calculating P app (cm/s) of tested reference compounds. (2) Papp=Metabolic cleareance/A.\nEquation (2) for calculating P app (cm/s) of compound metabolites.\nwith Metabolic cleareance=Rate of metabolism/C and where dQ/dt is the rate of transport, C is the initial concentration in the donor compartment, and A is the surface area of the filter. To quantify the rate of transport, cumulative amounts of test compounds were plotted against time (min).\nEfflux ratio was calculated using the following equation (Equation 3)^[ [48] ^]: (3) Efflux ratio=Papp(B−A)/Papp(A−B)."}, "[2]": {"molecular_target": "T1, PXR (Homo sapiens, UniProt O75469)", "T1 sequence (O75469 1-434)": "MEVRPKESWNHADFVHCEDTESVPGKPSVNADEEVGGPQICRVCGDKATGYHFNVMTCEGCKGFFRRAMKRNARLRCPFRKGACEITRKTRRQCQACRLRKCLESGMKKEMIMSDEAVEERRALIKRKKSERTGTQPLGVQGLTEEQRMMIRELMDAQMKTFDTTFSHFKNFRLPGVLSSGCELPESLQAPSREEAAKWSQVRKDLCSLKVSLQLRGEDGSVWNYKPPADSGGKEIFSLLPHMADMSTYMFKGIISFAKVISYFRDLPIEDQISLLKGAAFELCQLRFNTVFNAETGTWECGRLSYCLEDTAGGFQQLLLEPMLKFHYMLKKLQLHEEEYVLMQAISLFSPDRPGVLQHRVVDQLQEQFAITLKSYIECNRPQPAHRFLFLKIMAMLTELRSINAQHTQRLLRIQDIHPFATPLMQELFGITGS", "type": "cell-based", "set-up": "expressed in transfected cells; host or cells: LS174T cells, transient electroporation", "conditions": "LS174T cells, all concentrations tested (1.5–50 μM), 24 h", "description": "The PXR activation potential of VL was determined in transiently transfected HepG2 and LS174T cells as described earlier.^[ [50] ^] In brief, 24‐h‐old cells having 70%−80% confluency were trypsinized and transfected with pSG5‐hPXR (25 μg) and PCR‐5 (25 μg) plasmid DNA by electroporation at 180 V (1 pulse for 70 ms). Cells were incubated at room temperature for 8 min and floating dead cells were carefully removed. Cells were seeded in 96‐well plates at a density of 50,000 cells/well. […] Following 24 h of incubation, the culture medium was aspirated and 40 μL of luciferase reagent (Promega Corporation) was added to each well. Luminescence was measured using a Spectramax M5 plate reader (Molecular Devices) and the fold increase in luciferase activity among sample‐treated cells was calculated in comparison with the vehicle‐treated (DMSO) cells."}, "[3]": {"experiment": "Metabolic stability assay with human S9 liver fraction", "type": "in vitro ADME", "description": "(§1) HLMs and S9 fractions were used to determine, respectively, phases I and II metabolism of VL. A mixture of the activating cofactors (NADP^+ and UDPGA) and enzymes (G6PO4 and G6PDH) were used to stimulate the metabolism; in the microsome assay UDPGA was not needed. The final concentrations of cofactors NADPH and UDPGA were 1 mM each, while for the enzymes G6PO4 and G6PDH were 10 mM and 2 U/mL, respectively. The phosphate buffer was prepared as a 100 mM solution, pH 7.4, containing 10 mM magnesium chloride in deionized water. Testosterone and 7‐hydroxycoumarin were used as positive controls for phases I and II metabolism, and stock reference solutions of controls and VL were prepared, respectively, at 5 mM and 10 mM concentration in DMSO, and then diluted to a final test concentration of 10 µM. S9 fraction or microsome, final concentration 1 mg/mL, were preincubated with a test compound for 5 min at 37°C in the phosphate buffer, pH 7.4, and then the reactions were initiated by adding the cofactor mixture. A negative control sample was prepared replacing the reaction enzymes with water in the presence of a reaction mixture and test compound VL. At time points 0, 10, 20, 30, 45, 60, 90, and 120 min, 100 µL aliquots of the sample mixture were removed and quenched by the addition of two volumes of ice‐cold 50:50 ACN:MeOH containing the internal standard (cinnamic acid‐d6, 300 ng/mL final concentration). The quenched samples were then stored at −80°C overnight and defrosted before analysis, sonicated for 10 min, and centrifuged at 14,000 rpm for 15 min at 4°C to sediment the precipitated proteins before injection onto ultra performance liquid chromatography‐mass/mass (UPLC‐MS/MS) for analysis. T ½ was calculated using the interpolating point method using the nonlinear fit option of GraphPad Prism 8, while intrinsic clearance CL'int (mL/min/kg) was calculated as written in Equation (4) and as reported previously:^[ [23] ^] (4) CL^′int=0.693×Dose/T½."}, "[4]": {"experiment": "Metabolic stability assay with human liver microsomes", "type": "in vitro ADME", "description": "as §1, with “At time points 0, 10, 20, 30, 45, 60, 90, and 120 min, 100 µL aliquots of the sample mixture were removed and quenched by the addition of two volumes of ice‐cold 50:50 ACN:MeOH containing the internal standard (cinnamic acid‐d6, 300 ng/mL final concentration). The quenched samples were then stored at −80°C overnight and defrosted before analysis, sonicated for 10 min, and centrifuged at 14,000 rpm for 15 min at 4°C to sediment the precipitated proteins before injection onto ultra performance liquid chromatography‐mass/mass (UPLC‐MS/MS) for analysis.” left out, “(4) CL^′int=0.693×Dose/T½.” left out"}},
  "note": "“Also recorded” adds a separate entry of the source.",
  "data": [
    {"smiles": "O=C1CCC(Cc2ccc(O)c(O)c2)O1", "note": "(stereo not drawn) [VL, 5‐(3′,4′‐dihydroxyphenyl)‐γ‐valerolactone]", "values": [
      {"measurement": "VL in the donor compartment at the end of the experiment", "setting": "[1]; Caco2, 50 µM, 120 min", "value": "no longer detectable"},
      {"measurement": "conversion of VL to sulfate", "setting": "[1]; after 30 min", "value": 100, "unit": "%"},
      {"measurement": "PXR transcriptional activity, fold increase vs vehicle", "setting": "[2]", "value": "does not increase the PXR activity; also recorded: < twofold"},
      {"measurement": "VL metabolized in the liver fraction", "setting": "[3]; S9 liver fraction, 120 min", "value": 70.83, "unit": "%"},
      {"measurement": "intrinsic clearance", "setting": "[3]; human S9 fraction 1 mg/mL, 10 µM", "value": 0.784, "unit": "µM/min"},
      {"measurement": "half-life at 10 µM", "setting": "[3]; liver S9 fraction, pH 7.4, human S9 fraction 1 mg/mL, 10 µM, NADPH + UDPGA, read-out: half‐life t ½", "value": 8.72, "unit": "min"},
      {"measurement": "stability under negative control experimental conditions", "setting": "[3]; reaction enzymes replaced with water, data not shown", "value": "stable"},
      {"measurement": "half‐life t ½", "setting": "[4]; HLM 1 mg/mL, 10 µM", "value": 23.084, "unit": "min"},
      {"measurement": "half-life at 10 µM", "setting": "[4]; human, liver microsomes, pH 7.4, HLM 1 mg/mL, read-out: half‐life t ½", "value": 23.1, "unit": "min"}
    ]}
  ]
}
